PMC2918268 (Biochemical pharmacology, 2010)

Tests used:
Assay in all cases: cell-free TR-FRET co-activator peptide displacement
Assay type in all cases: binding
Details in all cases: read-out: EC50
[1] = biological target: T1, estrogen-related receptor α (ERRα) (Homo sapiens, UniProt P11474)
T1 sequence (P11474 193-423 limits assumed): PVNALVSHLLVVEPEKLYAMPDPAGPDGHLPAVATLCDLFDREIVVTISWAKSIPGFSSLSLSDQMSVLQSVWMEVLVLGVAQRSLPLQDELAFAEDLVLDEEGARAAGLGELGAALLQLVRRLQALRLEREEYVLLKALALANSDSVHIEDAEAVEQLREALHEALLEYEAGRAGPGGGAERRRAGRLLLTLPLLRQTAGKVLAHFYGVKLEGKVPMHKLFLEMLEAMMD

ERα = biological target: T2, ERα (Homo sapiens, UniProt P03372)
T2 sequence (P03372 311-547 limits assumed): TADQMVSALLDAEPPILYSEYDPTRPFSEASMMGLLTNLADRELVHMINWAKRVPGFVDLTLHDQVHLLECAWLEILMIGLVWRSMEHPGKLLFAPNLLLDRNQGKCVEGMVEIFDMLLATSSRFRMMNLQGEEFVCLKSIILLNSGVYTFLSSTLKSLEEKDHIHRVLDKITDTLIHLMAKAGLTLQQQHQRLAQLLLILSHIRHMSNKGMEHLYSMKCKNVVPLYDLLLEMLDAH

ERβ = ERβ (Homo sapiens, UniProt Q92731)
Sequence of ERβ (Q92731 264-498 limits assumed): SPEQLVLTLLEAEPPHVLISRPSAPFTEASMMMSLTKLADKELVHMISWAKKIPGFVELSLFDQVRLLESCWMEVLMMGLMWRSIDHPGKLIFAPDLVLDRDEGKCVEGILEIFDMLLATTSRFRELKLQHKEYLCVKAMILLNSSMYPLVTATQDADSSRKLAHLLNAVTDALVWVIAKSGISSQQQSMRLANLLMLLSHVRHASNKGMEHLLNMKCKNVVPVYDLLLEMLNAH

C[C@@H]1Cc2cc(O)ccc2[C@H]2CC[C@]3(C)/C(=C/COCCN(C)C)CC[C@H]3[C@H]12 [SR16388, 21-[2-(N,N-dimethylamino)ethyl]oxy-7a-methyl-19-norpregna-1,3,5(10),17(20)-tetraen-3-ol]
IC50 [1]: 700 ± 100 nM
IC50 (ERα): 200 ± 200 nM
IC50 (ERβ): 500 ± 200 nM
